# Laboratory results as given in patent publication US10131652B2, “Pyrimidinyloxy benzene derivatives as herbicides” (E. I. DU PONT DE NEMOURS AND COMPANY, priority 2014, dated 2018).
# Key:
# Type in all cases: in vivo
# [1] = tested on: pigweed (Amaranthus retroflexus); assay: Test B pre-/postemergence plant response
# In short: (§1)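 Ratings reflect visual injury versus untreated controls, from 0 for no effect to 100 for complete control, assessed roughly 10 days after treatment. Formulation: non-phytotoxic solvent mix with surfactant; pre- and postemergence sprays on plants grown in loam soil and sand.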
# corn (Zea mays) = assay: Test B pre-/postemergence plant response
# In short: as §1
# [2] = tested on: barnyardgrass (Echinochloa crus-galli); assay: Test B pre-/postemergence plant response
# In short: as §1
# [3] = tested on: giant foxtail (Setaria faberii); assay: Test B pre-/postemergence plant response
# In short: as §1
# [4] = tested on: wheat (Triticum aestivum); assay: Test B pre-/postemergence plant response
# In short: as §1
# [5] = tested on: barnyardgrass (Echinochloa crus-galli); assay: Test C flooded paddy test plant response; details: Flood, 250 g ai/ha; scale of 0 to 100 where 0 is no effect and 100 is complete control; 13 to 15 days
# In short: (§2)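 Plants grown to the 2-leaf stage; pots flooded to 3 cm above soil, test compounds applied directly to paddy water, depth maintained throughout. Greenhouse for 13 to 15 days, then visual rating versus controls on a 0–100 scale (0 no effect, 100 complete control).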
# [6] = tested on: ducksalad (Heteranthera limosa); assay: Test C flooded paddy test plant response; details: Flood, 250 g ai/ha; scale of 0 to 100 where 0 is no effect and 100 is complete control; 13 to 15 days
# In short: as §2
# [7] = tested on: small-flower umbrella sedge (Cyperus difformis); assay: Test C flooded paddy test plant response; details: Flood, 250 g ai/ha; scale of 0 to 100 where 0 is no effect and 100 is complete control; 13 to 15 days
# In short: as §2
# rice (Oryza sativa) = assay: Test C flooded paddy test plant response; details: Flood, 250 g ai/ha; scale of 0 to 100 where 0 is no effect and 100 is complete control; 13 to 15 days
# In short: as §2
# [8] = tested on: oilseed rape (Brassica napus); assay: Test D pre-/postemergence plant response
# In short: (§3)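 Visual injury scoring (0–100) at 13 to 15 days in greenhouse. Preemergence sprays on seeded loam/sand; postemergence sprays on 1–4 leaf plants.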
# [9] = tested on: winter wheat (Triticum aestivum); assay: Test D pre-/postemergence plant response
# In short: as §3
# [10] = tested on: yellow nutsedge (Cyperus esculentus); assay: Test D pre-/postemergence plant response
# In short: as §3
# [11] = tested on: johnsongrass (Sorghum halepense); assay: Test D pre-/postemergence plant response
# In short: as §3
# [12] = tested on: ragweed (common ragweed, Ambrosia elatior); assay: Test D pre-/postemergence plant response
# In short: as §3
# [13] = tested on: galium (catchweed bedstraw, Galium aparine); assay: Test D pre-/postemergence plant response
# In short: as §3
# [14] = 125 g ai/ha, postemergence, 0 to 100 scale, 0 no effect, 100 complete control
# [15] = Postemergence, 500 g ai/ha, 0 to 100 scale (0 no effect, 100 complete control)
# [16] = Preemergence, 125 g ai/ha, 0 to 100 scale (0 no effect, 100 complete control)
# [17] = Preemergence, 500 g ai/ha, 0 to 100 scale where 0 is no effect and 100 is complete control
# [18] = Postemergence, 31 g ai/ha, scale 0 to 100 (0 no effect, 100 complete control)
# [19] = Postemergence, 62 g ai/ha, scale 0 to 100, 0 no effect, 100 complete control
# [20] = Postemergence, 125 g ai/ha, scale 0 to 100, 0 no effect, 100 complete control
# [21] = Preemergence, 16 g ai/ha, scale 0 to 100 (0 no effect, 100 complete control)
# [22] = Preemergence, 31 g ai/ha, scale 0 to 100 (0 no effect, 100 complete control)
# [23] = Preemergence, 62 g ai/ha, scale 0 to 100 (0 no effect, 100 complete control)
smiles,measurement,setting,value
Clc1cnc(Oc2ccccc2-c2cc(C3CC3)on2)nc1 [Compound 183],"Plant response rating, Pigweed",[1]; [14],100
same,"Plant response rating, Pigweed",[1]; [15],100
same,Pigweed plant response rating,[1]; [16],90
same,"Plant response rating, Pigweed",[1]; [17],100
same,"Plant response rating, Corn",corn (Zea mays); [14],10
same,"Plant response rating, Corn",corn (Zea mays); [15],30
same,"Plant response rating, Barnyardgrass",[2]; [14],40
same,"Plant response rating, Barnyardgrass",[2]; [15],70
same,Barnyardgrass plant response rating,[2]; [16],30
same,"Plant response rating, Barnyardgrass",[2]; [17],80
same,"Plant response rating, Foxtail, Giant",[3]; [14],60
same,"Plant response rating, Foxtail, Giant",[3]; [15],80
same,"Foxtail, Giant plant response rating",[3]; [16],80
same,"Plant response rating, Foxtail, Giant",[3]; [17],90
same,"Plant response rating, Wheat",[4]; [14],10
same,"Plant response rating, Wheat",[4]; [15],60
same,Barnyardgrass plant response rating,[5],0
same,Ducksalad plant response rating,[6],85
same,"Sedge, Umbrella plant response rating",[7],75
same,Rice plant response rating,rice (Oryza sativa),0
same,"Plant response rating (scale 0 to 100), Oilseed Rape","[8]; Postemergence, 16 g ai/ha",5
same,Oilseed Rape plant response rating,[8]; [18],85
same,Oilseed Rape plant response rating,[8]; [19],100
same,"Plant response rating, Oilseed Rape",[8]; [20],100
same,"Plant response rating (scale 0 to 100), Oilseed Rape","[8]; Preemergence, 125 g ai/ha",100
same,"Plant response rating, Oilseed Rape",[8]; [21],50
same,"Plant response rating, Oilseed Rape",[8]; [22],100
same,"Plant response rating, Oilseed Rape",[8]; [23],100
same,"Plant response rating (scale 0 to 100), Wheat","[9]; Postemergence, 16 g ai/ha",5
same,Wheat plant response rating,[9]; [18],20
same,Wheat plant response rating,[9]; [19],30
same,"Plant response rating, Wheat",[9]; [20],30
same,"Plant response rating (scale 0 to 100), Wheat","[9]; Preemergence, 125 g ai/ha",0
same,"Plant response rating, Wheat",[9]; [21],0
same,"Plant response rating, Wheat",[9]; [22],0
same,"Plant response rating, Wheat",[9]; [23],0
same,"Plant response rating (scale 0 to 100), Nutsedge, Yellow","[10]; Postemergence, 16 g ai/ha",5
same,"Nutsedge, Yellow plant response rating",[10]; [18],5
same,"Nutsedge, Yellow plant response rating",[10]; [19],5
same,"Plant response rating, Nutsedge, Yellow",[10]; [20],5
same,"Plant response rating (scale 0 to 100), Nutsedge, Yellow","[10]; Preemergence, 125 g ai/ha",5
same,"Plant response rating, Nutsedge, Yellow",[10]; [21],0
same,"Plant response rating, Nutsedge, Yellow",[10]; [22],0
same,"Plant response rating, Nutsedge, Yellow",[10]; [23],0
same,"Plant response rating (scale 0 to 100), Johnsongrass","[11]; Postemergence, 16 g ai/ha",0
same,Johnsongrass plant response rating,[11]; [18],5
same,"Plant response rating, Johnsongrass",[11]; [19],5
same,"Plant response rating, Johnsongrass",[11]; [20],10
same,"Plant response rating (scale 0 to 100), Johnsongrass","[11]; Preemergence, 125 g ai/ha",45
same,"Plant response rating, Johnsongrass",[11]; [21],0
same,"Plant response rating, Johnsongrass",[11]; [22],5
same,"Plant response rating, Johnsongrass",[11]; [23],20
same,"Plant response rating (scale 0 to 100), Ragweed","[12]; Postemergence, 16 g ai/ha",15
same,Ragweed plant response rating,[12]; [18],35
same,Ragweed plant response rating,[12]; [19],60
same,"Plant response rating, Ragweed",[12]; [20],65
same,"Plant response rating (scale 0 to 100), Ragweed","[12]; Preemergence, 125 g ai/ha",10
same,"Plant response rating, Ragweed",[12]; [21],0
same,"Plant response rating, Ragweed",[12]; [22],0
same,"Plant response rating, Ragweed",[12]; [23],0
same,"Plant response rating (scale 0 to 100), Galium","[13]; Postemergence, 16 g ai/ha",65
same,Galium plant response rating,[13]; [18],65
same,"Plant response rating, Galium",[13]; [19],95
same,"Plant response rating, Galium",[13]; [20],95
same,"Plant response rating (scale 0 to 100), Galium","[13]; Preemergence, 125 g ai/ha",95
same,"Plant response rating, Galium",[13]; [21],50
same,"Plant response rating, Galium",[13]; [22],50
same,"Plant response rating, Galium",[13]; [23],95
Cc1cc(-c2ccccc2Oc2ncc(Cl)cn2)no1 [Compound 153],"Plant response rating, Pigweed",[1]; [14],100
same,"Plant response rating, Pigweed",[1]; [15],100
same,Pigweed plant response rating,[1]; [16],100
same,"Plant response rating, Pigweed",[1]; [17],100
same,"Plant response rating, Corn",corn (Zea mays); [14],30
same,"Plant response rating, Corn",corn (Zea mays); [15],40
same,"Plant response rating, Barnyardgrass",[2]; [14],0
same,"Plant response rating, Barnyardgrass",[2]; [15],70
same,Barnyardgrass plant response rating,[2]; [16],0
same,"Plant response rating, Barnyardgrass",[2]; [17],100
same,"Plant response rating, Foxtail, Giant",[3]; [14],20
same,"Plant response rating, Foxtail, Giant",[3]; [15],90
same,"Foxtail, Giant plant response rating",[3]; [16],30
same,"Plant response rating, Foxtail, Giant",[3]; [17],100
same,"Plant response rating, Wheat",[4]; [14],30
same,"Plant response rating, Wheat",[4]; [15],50
same,Barnyardgrass plant response rating,[5],0
same,Ducksalad plant response rating,[6],0
same,"Sedge, Umbrella plant response rating",[7],0
same,Rice plant response rating,rice (Oryza sativa),0
same,Oilseed Rape plant response rating,[8]; [18],40
same,"Plant response rating, Oilseed Rape",[8]; [19],60
same,"Plant response rating, Oilseed Rape",[8]; [20],85
same,Wheat plant response rating,[9]; [18],0
same,"Plant response rating, Wheat",[9]; [19],5
same,"Plant response rating, Wheat",[9]; [20],10
same,"Nutsedge, Yellow plant response rating",[10]; [18],0
same,"Plant response rating, Nutsedge, Yellow",[10]; [19],5
same,"Plant response rating, Nutsedge, Yellow",[10]; [20],5
same,Johnsongrass plant response rating,[11]; [18],0
same,"Plant response rating, Johnsongrass",[11]; [19],5
same,"Plant response rating, Johnsongrass",[11]; [20],10
same,Ragweed plant response rating,[12]; [18],10
same,"Plant response rating, Ragweed",[12]; [19],25
same,"Plant response rating, Ragweed",[12]; [20],55
same,Galium plant response rating,[13]; [18],70
same,"Plant response rating, Galium",[13]; [19],70
same,"Plant response rating, Galium",[13]; [20],80
